This experiment has as its target CA IX (Homo sapiens, UniProt Q16790). The experiment in a line: biochemical.

The compound `O=c1ccc2ccc(O[C@@H]3O[C@H](CO)[C@@H](O)[C@H](O)[C@H]3O)cc2o1` [Skimmin, skimmin] had an IC50 of 0.548 ± 0.0357 µM.

The term IC50 denotes the concentration that gives 50% inhibition.
